For ten molecules, Ki, GI50 and RatioGI50 results are on record in ChEMBL document CHEMBL1138218, “Structure-activity relationship studies of ethyl 2-amino-6-bromo-4-(1-cyano-2-ethoxy-2-oxoethyl)-4H-chromene-3-carboxylate (HA 14-1), an antagonist for antiapoptotic Bcl-2 proteins to overcome drug resistance in cancer” (J Med Chem, 2006).

Molecules are shown by their SMILES. Bounds are passed on as bounds.

For test [1], the target named is T1, Apoptosis regulator Bcl-2 (Homo sapiens, UniProt P10415). Description: Binding affinity to Bcl2 by FP assay.
Another test deals with Jurkat. The test can be described thus: Growth inhibition of Jurkat cell. Format: functional. The following applies: Homo sapiens.
Test [2] concerns the target T2, Bcl-2-like protein 1 (Homo sapiens, UniProt Q07817). The test can be described thus: Growth inhibition of Jurkat cell overexpressing BclXL. It is filed as functional, cell-based.
Test [3] concerns the target T1, Apoptosis regulator Bcl-2. Description: Growth inhibition of Jurkat cell overexpressing Bcl2. Format: functional, cell-based.
A further test deals with NCI-H460. The test can be described thus: Growth inhibition of NCI-H460 cell. Format: functional. The note with it: Homo sapiens.
The nature of test [4]: Ratio of GI50 for Jurkat cells overexpressing Bcl2 or BclXL to normal Jurkat cells. It is filed as functional, Homo sapiens.
The target in another test is T3, Bcl-2-like protein 2 (Homo sapiens, UniProt Q92843).
T3 sequence (Q92843 whole entry): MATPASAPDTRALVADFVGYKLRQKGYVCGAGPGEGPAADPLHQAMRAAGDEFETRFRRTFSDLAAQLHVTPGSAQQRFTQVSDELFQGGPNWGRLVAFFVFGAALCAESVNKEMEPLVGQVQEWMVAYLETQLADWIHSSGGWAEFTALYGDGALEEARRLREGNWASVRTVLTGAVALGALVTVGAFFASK
The test can be described thus: Binding affinity to Bclw by FP assay.

The target of test [5] is T2, Bcl-2-like protein 1. Description: Binding affinity to BclXL by FP assay.

T1 sequence (P10415 whole entry): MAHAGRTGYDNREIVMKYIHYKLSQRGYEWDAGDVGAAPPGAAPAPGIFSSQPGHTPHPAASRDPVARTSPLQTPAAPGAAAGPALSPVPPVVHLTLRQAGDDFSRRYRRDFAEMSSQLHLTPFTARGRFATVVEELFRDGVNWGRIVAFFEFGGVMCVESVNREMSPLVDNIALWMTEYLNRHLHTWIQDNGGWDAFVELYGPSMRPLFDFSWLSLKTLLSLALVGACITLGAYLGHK
T2 sequence (Q07817 whole entry): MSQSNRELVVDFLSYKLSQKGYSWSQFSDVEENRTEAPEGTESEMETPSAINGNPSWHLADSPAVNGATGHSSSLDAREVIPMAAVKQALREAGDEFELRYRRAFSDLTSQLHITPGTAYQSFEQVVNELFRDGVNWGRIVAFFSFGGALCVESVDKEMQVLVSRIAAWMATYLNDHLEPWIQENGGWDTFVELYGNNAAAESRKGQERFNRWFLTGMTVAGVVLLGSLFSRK

For orientation: Ki means the equilibrium dissociation constant of an inhibitor or competing ligand from its target. A low value points to tighter binding. Usually GI50 stands for the concentration at which growth is held to half of that of the control. Low readings indicate greater sensitivity of the cells, high ones lower sensitivity of the cells. As to `CCOC(=O)C1=C(N)Oc2ccc(-c3ccccc3)cc2C1C(C#N)C(=O)OCC` (configuration not stated), the Ki turned out to be 112 µM in test [1], 41.2 µM at Bcl-2-like protein 2 and 52.9 µM at Bcl-2-like protein 1 [5]. The GI50 turned out to be 3.9 µM in the test with Jurkat, 4.1 µM on Bcl-2-like protein 1 [2], 4.2 µM in test [3] and 15.9 µM in the test with NCI-H460. For the same molecule, the RatioGI50 in test [4] was less than 1.07.

With `CCOC(=O)C1=C(N)Oc2ccc(C3CCCC3)cc2C1C(C#N)C(=O)OCC` (configuration not stated), the Ki in test [1] was 128 µM; on Bcl-2-like protein 2, 30.8 µM; at Bcl-2-like protein 1 [5], 36.5 µM. Moreover, the GI50 in the test on Jurkat worked out at 3.5 µM; on Bcl-2-like protein 1 [2], 3.9 µM; in test [3], 3.8 µM; in the test with NCI-H460, 11 µM. Moreover, the RatioGI50 in test [4] was less than 1.1.

With `COc1cccc2c1C(=O)c1c(O)c3c(c(O)c1C2=O)C[C@@](O)(C(=O)CO)C[C@@H]3O[C@H]1C[C@H](N)[C@H](O)[C@H](C)O1` [DOXORUBICIN], the GI50 in the test on Jurkat was 0.21 µM; at Bcl-2-like protein 1 [2], 24 µM; in test [3], 26 µM. Besides, in test [4], the RatioGI50 is reported as greater than 100.

With `CCOC(=O)C1=C(N)Oc2ccc(CC)cc2C1C(C#N)C(=O)OCC` (configuration not stated), the Ki stood at 210 µM in test [1], 121 µM on Bcl-2-like protein 2 and 135 µM on Bcl-2-like protein 1 [5]. The GI50 is 13 µM in the test with Jurkat, 13 µM at Bcl-2-like protein 1 [2], 12 µM in test [3] and 79.1 µM with NCI-H460. Also, in test [4], the RatioGI50 was less than 1.

As for `CCOC(=O)C1=C(N)Oc2ccc(C)cc2C1C(C#N)C(=O)OCC` (configuration not stated), the Ki in test [1] was determined as 309 µM; at Bcl-2-like protein 2, 199 µM; at Bcl-2-like protein 1 [5] it was 191 µM. Besides, the GI50 in the test on Jurkat came out at 29 µM; at Bcl-2-like protein 1 [2], 41 µM; in test [3], 37 µM; in the test on NCI-H460, 102 µM. Moreover, the RatioGI50 in test [4] was less than 1.41.

As for `CCOC(=O)C1=C(N)Oc2ccc(-c3ccc(C(C)(C)C)cc3)cc2C1C(C#N)C(=O)OCC` (configuration not stated), the GI50 in the test on Jurkat was determined as 0.8 µM; at Bcl-2-like protein 1 [2], 0.99 µM; in test [3] it was 0.99 µM; in the test with NCI-H460, 0.16 µM. Moreover, in test [4], the RatioGI50 is reported as less than 1.24. Moreover, the values for the Ki on Bcl-2-like protein 2 and on Bcl-2-like protein 1 [5] were 20.3 µM and 21.7 µM, respectively.

Take `CCOC(=O)C1=C(N)Oc2ccccc2C1C(C#N)C(=O)OCC` (configuration not stated): the figures for the inhibition constant Ki (in test [1]; at Bcl-2-like protein 2; at Bcl-2-like protein 1 [5]) were 531 µM, 697 µM and 570 µM, respectively. In addition, the GI50 in the test with Jurkat amounted to 66 µM; at Bcl-2-like protein 1 [2], 99 µM; in test [3], 94 µM; in the test on NCI-H460, 157 µM. In addition, the RatioGI50 in test [4] is on record as less than 1.5.

As for `Nc1nc2[nH]cnc2c(=S)[nH]1` [THIOGUANINE], the GI50 in the test on Jurkat stood at 13 µM; on Bcl-2-like protein 1 [2], 183 µM; in test [3], 147 µM. Moreover, the RatioGI50 in test [4] is on record as greater than 11.

In the case of `CC(=O)O[C@H]1C(=O)[C@@]2(C)[C@H]([C@H](OC(=O)c3ccccc3)[C@]3(O)C[C@H](OC(=O)[C@H](O)[C@@H](NC(=O)c4ccccc4)c4ccccc4)C(C)=C1C3(C)C)[C@]1(OC(C)=O)CO[C@@H]1C[C@@H]2O` [PACLITAXEL], the results for the GI50 (in the test with Jurkat; at Bcl-2-like protein 1 [2]; in test [3]) were less than 0.01 µM, greater than 10 µM and greater than 10 µM, respectively. The RatioGI50 in test [4] is greater than 100.

With `CCCc1ccc2c(c1)C(C(C#N)C(=O)OCC)C(C(=O)OCC)=C(N)O2` (configuration not stated), the Ki in test [1] is 128 µM; at Bcl-2-like protein 2, 56.7 µM; on Bcl-2-like protein 1 [5], 70.7 µM. The GI50 in the test with Jurkat amounted to 5.2 µM; on Bcl-2-like protein 1 [2], 6.3 µM; in test [3] it was 5.7 µM; in the test on NCI-H460 it was 24.9 µM. Besides, the RatioGI50 in test [4] is listed as less than 1.21.
